Reference: patent US20220194935A1, “PHENETHYL SUBSTITUTED IMIDAZO[4,5-C]QUINOLINE COMPOUNDS WITH AN N-1 BRANCHED GROUP” (3M INNOVATIVE PROPERTIES COMPANY, priority 2019, published 2022)

Target: T1, human TLR7 (Homo sapiens, UniProt Q9NYK1)
T1 construct: host or cells: HEK293 (HEK-BLUE-hTLR7)
T1 sequence (Q9NYK1 27-1049): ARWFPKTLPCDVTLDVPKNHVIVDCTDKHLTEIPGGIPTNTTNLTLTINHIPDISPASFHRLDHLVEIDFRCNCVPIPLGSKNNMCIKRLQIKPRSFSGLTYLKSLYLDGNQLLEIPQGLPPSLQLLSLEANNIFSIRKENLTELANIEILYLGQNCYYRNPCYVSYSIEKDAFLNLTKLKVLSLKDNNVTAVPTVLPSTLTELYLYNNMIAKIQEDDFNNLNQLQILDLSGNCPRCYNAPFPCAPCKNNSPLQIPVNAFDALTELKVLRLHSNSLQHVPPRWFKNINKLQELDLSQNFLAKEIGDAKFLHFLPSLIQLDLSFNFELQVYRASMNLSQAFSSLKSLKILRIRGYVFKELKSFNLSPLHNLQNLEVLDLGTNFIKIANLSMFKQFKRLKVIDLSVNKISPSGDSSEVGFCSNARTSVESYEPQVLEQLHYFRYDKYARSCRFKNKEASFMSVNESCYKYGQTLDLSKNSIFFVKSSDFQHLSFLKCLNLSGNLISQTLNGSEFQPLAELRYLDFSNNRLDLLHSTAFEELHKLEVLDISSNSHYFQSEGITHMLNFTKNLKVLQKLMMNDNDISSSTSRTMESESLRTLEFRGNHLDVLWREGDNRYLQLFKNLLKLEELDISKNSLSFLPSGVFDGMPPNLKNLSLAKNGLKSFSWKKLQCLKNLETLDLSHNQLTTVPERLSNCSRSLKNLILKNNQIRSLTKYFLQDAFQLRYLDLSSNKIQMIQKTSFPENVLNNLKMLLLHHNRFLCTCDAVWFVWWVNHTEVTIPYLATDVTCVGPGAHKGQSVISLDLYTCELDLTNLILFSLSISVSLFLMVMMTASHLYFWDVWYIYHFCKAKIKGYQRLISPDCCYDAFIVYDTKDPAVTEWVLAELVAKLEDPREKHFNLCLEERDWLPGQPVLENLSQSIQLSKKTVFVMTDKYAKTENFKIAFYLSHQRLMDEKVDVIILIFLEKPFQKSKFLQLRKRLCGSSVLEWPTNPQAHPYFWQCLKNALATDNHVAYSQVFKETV
Assay: TLR Activation and Specificity, HEK-BLUE-hTLR7 SEAP reporter cells
Format: cell-based
Conditions: 16-20 hours, at least 2× vehicle control, tested 0.01-30 micromolar
Description: HEK-BLUE-hTLR7 or hTLR8 reporter cells were obtained from InvivoGen, San Diego, Calif. According to the manufacturer's description, these reporter cells were prepared by co-transfection of HEK293 cells with an inducible secreted embryonic alkaline phosphatase (SEAP) reporter gene and either the human TLR7 or TLR8 gene. The SEAP reporter gene was placed under the control of an IFN-β minimal promoter fused to five NF-κB and AP-1-binding sites. In the presence of a TLR ligand, activation of NF-κB and AP-1 occurs, resulting in a corresponding increase in SEAP levels.
In the assay, the HEK cells were grown and maintained using standard cell culture techniques in a growth medium that contained Dulbecco's Modified Eagle Medium (ThermoFisher Scientific Incorporated, Waltham, Mass.) supplemented with 1% penicillin/streptomycin and 10% heat-inactivated Gibco fetal bovine serum (ThermoFisher Scientific). Each compound was solubilized in DMSO to create a 3 millimole (mM) stock solution. The stock solution was then further diluted with the growth medium to prepare serial dilutions. Each test compound was tested at a concentration of 30, 10, 3.3, 1.1, 0.37, 0.12, 0.04, and 0.01 micromolar using a 96-well format with 5×10^4 cells and 200 microliters of growth medium per well.
For each compound, hTLR7, hTLR8, and their respective null control HEK cells were screened. DMSO serially diluted into the growth medium served as the vehicle control. Cell culture supernatants containing the SEAP reporter were collected after an incubation period of 16-20 hours in a cell culture incubator (37° C. and 5% CO2), and either analyzed immediately or stored at −80° C. SEAP levels were measured using the colorimetric enzyme assay (QUANTI-BLUE (InvivoGen) according to manufacturer's instructions.
Specifically, the minimum effective concentration of each compound (micromolar) was determined as the lowest concentration of the compound that produced a SEAP expression response at least 2× greater than that observed with the vehicle control wells.

**Q.** How did the “MEC to Produce TLR Activation, TLR 7” value turn out when `C[C@H](Cc1ccccc1)n1cnc2c(N)nc3ccccc3c21` [Example 1, 1-[(1R)-1-methyl-2-phenyl-ethyl]imidazo[4,5-c]quinolin-4-amine] was run?
**A.** 0.37 µM

**Q.** `CCOC[C@@H](Cc1ccccc1)n1cnc2c(N)nc3ccccc3c21` [Example 4, 1-[(1R)-1-benzyl-2-ethoxy-ethyl]imidazo[4,5-c]quinolin-4-amine] was tested. Which “MEC to Produce TLR Activation, TLR 7” value did it give?
**A.** 1.1 µM

**Q.** For `Nc1nc2ccccc2c2c1ncn2CCc1ccccc1` [Comparative Example 1, 1-phenethyl-1H-imidazo[4,5-c]quinolin-4-amine, reference compound], which “MEC to Produce TLR Activation, TLR 7” value is on record?
**A.** 1.1 µM

**Q.** `CCCC[C@H](Cc1ccccc1)n1cnc2c(N)nc3ccccc3c21` [Example 2, 1-[(1R)-1-benzylpentyl]imidazo[4,5-c]quinolin-4-amine] was tested. Which “MEC to Produce TLR Activation, TLR 7” value did it give?
**A.** ≤0.01 µM

**Q.** For `CCCCOc1ccc(C[C@@H](CCCC)n2cnc3c(N)nc4ccccc4c32)cc1` [Example 7, 1-[(1R)-1-[(4-butoxyphenyl)methyl]pentyl]imidazo[4,5-c]quinolin-4-amine], which “MEC to Produce TLR Activation, TLR 7” value is on record?
**A.** ≤0.01 µM

**Q.** Which “MEC to Produce TLR Activation, TLR 7” value does the source give for `COC[C@H](Cc1ccccc1)n1cnc2c(N)nc3ccccc3c21` [Example 5, 1-[(1S)-1-benzyl-2-methoxy-ethyl]imidazo[4,5-c]quinolin-4-amine] here?
**A.** ≤0.01 µM

**Q.** For `COC[C@@H](Cc1ccccc1)n1cnc2c(N)nc3ccccc3c21` [Example 3, 1-[(1R)-1-benzyl-2-methoxy-ethyl]imidazo[4,5-c]quinolin-4-amine], which “MEC to Produce TLR Activation, TLR 7” value is on record?
**A.** 1.1 µM

**Q.** For `CCOC[C@H](Cc1ccccc1)n1cnc2c(N)nc3ccccc3c21` [Example 6, 1-[(1S)-1-benzyl-2-ethoxy-ethyl]imidazo[4,5-c]quinolin-4-amine], which “MEC to Produce TLR Activation, TLR 7” value is on record?
**A.** ≤0.01 µM
